Measurements as given in US8192962B2, “Processes for detecting toxic substances” (Daikin Industries, Ltd., priority 2001, dated 2012).

System: Transport facilitation protein genes
Assay: DNA chip mRNA expression in yeast, transport facilitation protein genes (Table 5)
Assay type: cell-based, Saccharomyces cerevisiae S288C
Method in brief: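 First, S288C yeast grown in YPD at 25° C. are dosed in log phase with one toxicant (growth-inhibiting, not lethal) for 2 h. Next, total RNA is extracted and poly(A) mRNA isolated and reverse-transcribed with Cy3/Cy5-dUTP. Finally, whole-genome chip fluorescence is read relative to unexposed cells.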

`[Cl][Cd][Cl]` [(2), CdCl2] was tested, and the “The level of expressed mRNA in the presence of chemical substance/The level of expressed mRNA in the absence of chemical substance” value (yeast gene YGR224W) was 1.2, the “The level of expressed mRNA in the presence of chemical substance/The level of expressed mRNA in the absence of chemical substance” value (yeast gene YGR260W) was 0.7 and the “The level of expressed mRNA in the presence of chemical substance/The level of expressed mRNA in the absence of chemical substance” value (yeast gene YGR281W) was 1.0. For the same compound, the “The level of expressed mRNA in the presence of chemical substance/The level of expressed mRNA in the absence of chemical substance” value (yeast gene YHL035C) was 1.3, the “The level of expressed mRNA in the presence of chemical substance/The level of expressed mRNA in the absence of chemical substance” value (yeast gene YHL040C) was 4.9 and the “The level of expressed mRNA in the presence of chemical substance/The level of expressed mRNA in the absence of chemical substance” value (yeast gene YHL047C) was 4.4. For the same compound, the “The level of expressed mRNA in the presence of chemical substance/The level of expressed mRNA in the absence of chemical substance” value (yeast gene YHR026W) was 1.0, the “The level of expressed mRNA in the presence of chemical substance/The level of expressed mRNA in the absence of chemical substance” value (yeast gene YHR092C) was 1.0 and the “The level of expressed mRNA in the presence of chemical substance/The level of expressed mRNA in the absence of chemical substance” value (yeast gene YHR094C) was 1.2. The “The level of expressed mRNA in the presence of chemical substance/The level of expressed mRNA in the absence of chemical substance” value (yeast gene YHR175W) was 2.0, the “The level of expressed mRNA in the presence of chemical substance/The level of expressed mRNA in the absence of chemical substance” value (yeast gene YIL006W) was 1.1 and the “The level of expressed mRNA in the presence of chemical substance/The level of expressed mRNA in the absence of chemical substance” value (yeast gene YIL022W) was 0.7. The “The level of expressed mRNA in the presence of chemical substance/The level of expressed mRNA in the absence of chemical substance” value (yeast gene YIL056W) was 0.9, the “The level of expressed mRNA in the presence of chemical substance/The level of expressed mRNA in the absence of chemical substance” value (yeast gene YIL088C) was 2.1 and the “The level of expressed mRNA in the presence of chemical substance/The level of expressed mRNA in the absence of chemical substance” value (yeast gene YJL034W) was 1.7. The “The level of expressed mRNA in the presence of chemical substance/The level of expressed mRNA in the absence of chemical substance” value (yeast gene YJL212C) was 3.2, the “The level of expressed mRNA in the presence of chemical substance/The level of expressed mRNA in the absence of chemical substance” value (yeast gene YJL219W) was 2.5 and the “The level of expressed mRNA in the presence of chemical substance/The level of expressed mRNA in the absence of chemical substance” value (yeast gene YJR077C) was 1.1. For the same compound, the “The level of expressed mRNA in the presence of chemical substance/The level of expressed mRNA in the absence of chemical substance” value (yeast gene YJR106W) was 3.8, the “The level of expressed mRNA in the presence of chemical substance/The level of expressed mRNA in the absence of chemical substance” value (yeast gene YJR121W) was 1.1 and the “The level of expressed mRNA in the presence of chemical substance/The level of expressed mRNA in the absence of chemical substance” value (yeast gene YKL016C) was 1.3. The “The level of expressed mRNA in the presence of chemical substance/The level of expressed mRNA in the absence of chemical substance” value (yeast gene YKL146W) was 1.3, the “The level of expressed mRNA in the presence of chemical substance/The level of expressed mRNA in the absence of chemical substance” value (yeast gene YKR039W) was 3.5 and the “The level of expressed mRNA in the presence of chemical substance/The level of expressed mRNA in the absence of chemical substance” value (yeast gene YKR067W) was 2.6. The “The level of expressed mRNA in the presence of chemical substance/The level of expressed mRNA in the absence of chemical substance” value (yeast gene YLL028W) was 0.9, the “The level of expressed mRNA in the presence of chemical substance/The level of expressed mRNA in the absence of chemical substance” value (yeast gene YLR081W) was 0.8 and the “The level of expressed mRNA in the presence of chemical substance/The level of expressed mRNA in the absence of chemical substance” value (yeast gene YLR295C) was 1.1. For the same compound, the “The level of expressed mRNA in the presence of chemical substance/The level of expressed mRNA in the absence of chemical substance” value (yeast gene YLR348C) was 4.5, the “The level of expressed mRNA in the presence of chemical substance/The level of expressed mRNA in the absence of chemical substance” value (yeast gene YLR378C) was 0.9 and the “The level of expressed mRNA in the presence of chemical substance/The level of expressed mRNA in the absence of chemical substance” value (yeast gene YMR011W) was 1.0. For the same compound, the “The level of expressed mRNA in the presence of chemical substance/The level of expressed mRNA in the absence of chemical substance” value (yeast gene YMR162C) was 1.1, the “The level of expressed mRNA in the presence of chemical substance/The level of expressed mRNA in the absence of chemical substance” value (yeast gene YMR203W) was 0.7 and the “The level of expressed mRNA in the presence of chemical substance/The level of expressed mRNA in the absence of chemical substance” value (yeast gene YNL055C) was 1.8. The “The level of expressed mRNA in the presence of chemical substance/The level of expressed mRNA in the absence of chemical substance” value (yeast gene YNR072W) was 1.5, the “The level of expressed mRNA in the presence of chemical substance/The level of expressed mRNA in the absence of chemical substance” value (yeast gene YOL119C) was 4.8 and the “The level of expressed mRNA in the presence of chemical substance/The level of expressed mRNA in the absence of chemical substance” value (yeast gene YOL156W) was 0.7. The “The level of expressed mRNA in the presence of chemical substance/The level of expressed mRNA in the absence of chemical substance” value (yeast gene YOL163W) was 3.2, the “The level of expressed mRNA in the presence of chemical substance/The level of expressed mRNA in the absence of chemical substance” value (yeast gene YOR035C) was 1.2 and the “The level of expressed mRNA in the presence of chemical substance/The level of expressed mRNA in the absence of chemical substance” value (yeast gene YOR130C) was 1.7. For the same compound, the “The level of expressed mRNA in the presence of chemical substance/The level of expressed mRNA in the absence of chemical substance” value (yeast gene YOR153W) was 0.9, the “The level of expressed mRNA in the presence of chemical substance/The level of expressed mRNA in the absence of chemical substance” value (yeast gene YOR273C) was 1.0 and the “The level of expressed mRNA in the presence of chemical substance/The level of expressed mRNA in the absence of chemical substance” value (yeast gene YOR316C) was 2.5. The “The level of expressed mRNA in the presence of chemical substance/The level of expressed mRNA in the absence of chemical substance” value (yeast gene YOR328W) was 1.0, the “The level of expressed mRNA in the presence of chemical substance/The level of expressed mRNA in the absence of chemical substance” value (yeast gene YOR332W) was 1.0 and the “The level of expressed mRNA in the presence of chemical substance/The level of expressed mRNA in the absence of chemical substance” value (yeast gene YOR348C) was 0.7. For the same compound, the “The level of expressed mRNA in the presence of chemical substance/The level of expressed mRNA in the absence of chemical substance” value (yeast gene YPL036W) was 0.8, the “The level of expressed mRNA in the presence of chemical substance/The level of expressed mRNA in the absence of chemical substance” value (yeast gene YPL134C) was 1.0 and the “The level of expressed mRNA in the presence of chemical substance/The level of expressed mRNA in the absence of chemical substance” value (yeast gene YPL271W) was 3.2. The “The level of expressed mRNA in the presence of chemical substance/The level of expressed mRNA in the absence of chemical substance” value (yeast gene YPR192W) was 1.1 and the “The level of expressed mRNA in the presence of chemical substance/The level of expressed mRNA in the absence of chemical substance” value (yeast gene YPR194C) was 1.4.
